tested on: HCV replicon cells; experiment: Cell-based HCV replicon assay (replicon RNA level by real time PCR, Taqman); details: Hepatitis C virus, 72 h, harvested on day 3, EC90 = concentration necessary to achieve ΔCT=3.2 over the baseline, read-out: EC90 Range
Method: Assays Cell-Based HCV Replicon Assay
To measure cell-based anti-HCV activity of the compounds of the present invention, replicon cells were seeded at 5000 cells/well in 96-well collagen I-coated Nunc plates in the presence of the compound of the invention. […] The final concentration of DMSO was 0.5%, fetal bovine serum was 10%, in the assay media. Cells were harvested on day 3 by the addition of 1× cell lysis buffer (Ambion cat #8721). The replicon RNA level was measured using real time PCR (Taqman assay). The amplicon was located in 5B. […] GAPDH RNA was used as endogenous control and was amplified in the same reaction as NS5B (multiplex PCR) using primers and VIC-labeled probe recommended by the manufacturer (PE Applied Biosystem). The real-time RT-PCR reactions were run on ABI PRISM 7900HT Sequence Detection System using the following program: 48° C. for 30 min, 95° C. for 10 min, 40 cycles of 95° C. for 15 sec, 60° C. for 1 min. The ACT values (CT5B-CTGAPDH) were plotted against the concentration of test compound and fitted to the sigmoid dose-response model using GraphPad PRISM software. EC50 was defined as the concentration of inhibitor necessary to achieve ΔCT=1 over the projected baseline; EC90 the concentration necessary to achieve ΔCT=3.2 over the baseline. Alternatively, to quantitate the absolute amount of replicon RNA, a standard curve was established by including serially diluted T7 transcripts of replicon RNA in the Taqman assay. All Taqman reagents were from PE Applied Biosystems. Such an assay procedure was described in detail in e.g. Malcolm et al., Antimicrobial Agents and Chemotherapy 50: 1013-1020 (2006).

Question: Which EC90 does the source give for `COCCNc1nc(Cl)c(C#Cc2ccc(OC)nc2)c(N[C@@H]2C[C@H](CO)[C@@H](O)[C@H]2O)n1` [Compound 75] here?
Answer: ≤ 500 nM

Question: With `COCCNc1nc(C)c(C#Cc2ccc(OC)nc2OC)c(N[C@@H]2C[C@H](CO)[C@@H](O)[C@H]2O)n1` [Compound 94] as the compound, how does the EC90 read?
Answer: ≤ 500 nM

Question: How did the EC90 turn out when `Nc1nc(Cl)c(C#Cc2ccc(-c3ccccn3)s2)c(N[C@@H]2C[C@H](CO)[C@@H](O)[C@H]2O)n1` [Compound 34] was run?
Answer: ≤ 500 nM

Question: How did the EC90 turn out when `COC(=O)c1ncccc1C#Cc1c(Cl)nc(N(C)C)nc1N[C@@H]1C[C@H](CO)[C@@H](O)[C@H]1O` [Compound 62] was run?
Answer: 500 to 5000 nM

Question: With `CNc1nc(Cl)c(C#Cc2ccccc2C(=O)OC(C)C)c(N[C@@H]2C[C@H](CO)[C@@H](O)[C@H]2O)n1` [Compound 50] as the compound, how does the EC90 read?
Answer: 500 to 5000 nM

Question: Which EC90 does the source give for `Nc1nc(Cl)c(C#Cc2ccc(C(=O)C(F)(F)F)s2)c(N[C@@H]2C[C@H](CO)[C@@H](O)[C@H]2O)n1` [Compound 40] here?
Answer: 500 to 5000 nM

Question: How did the EC90 turn out when `COc1ccc(C#Cc2c(C)nc(NCC3CC3)nc2N[C@@H]2C[C@H](CO)[C@@H](O)[C@H]2O)cn1` [Compound 92] was run?
Answer: ≤ 500 nM

Question: For `CCOc1ccc(C#Cc2c(Cl)nc(NCCOC)nc2N[C@@H]2C[C@H](CO)[C@@H](O)[C@H]2O)cn1` [Compound 73], which EC90 is on record?
Answer: ≤ 500 nM

Question: Which EC90 does the source give for `Nc1nc(Cl)c(C#Cc2ncc[nH]2)c(N[C@@H]2C[C@H](CO)[C@@H](O)[C@H]2O)n1` [Compound 13] here?
Answer: 500 to 5000 nM

Question: With `CCOCCNc1nc(C)c(C#Cc2ccsc2)c(N[C@@H]2C[C@H](CO)[C@@H](O)[C@H]2O)n1` [Compound 103] as the compound, how does the EC90 read?
Answer: ≤ 500 nM

Question: For `COc1ccc(C#Cc2c(C)nc(NCC(F)(F)F)nc2N[C@@H]2C[C@H](CO)[C@@H](O)[C@H]2O)cn1` [Compound 90], which EC90 is on record?
Answer: 500 to 5000 nM

Question: `CNc1nc(Cl)c(C#Cc2ccc(OC)nc2)c(N[C@@H]2C[C@H](CO)[C@@H](O)[C@H]2O)n1` [Compound 19] was tested. Which EC90 did it give?
Answer: ≤ 500 nM

Question: `CCOc1ccc(C#Cc2c(C)nc(N)nc2N[C@@H]2C[C@H](CO)[C@@H](O)[C@H]2O)cn1` [Compound 1] was tested. Which EC90 did it give?
Answer: ≤ 500 nM

Question: `COc1ccc(C#Cc2c(C)nc(NCCCO)nc2N[C@@H]2C[C@H](CO)[C@@H](O)[C@H]2O)cn1` [Compound 78] was tested. Which EC90 did it give?
Answer: ≤ 500 nM

Question: For `Cc1nc(-c2ccc(C#Cc3c(Cl)nc(N)nc3N[C@@H]3C[C@H](CO)[C@@H](O)[C@H]3O)s2)cs1` [Compound 39], which EC90 is on record?
Answer: 500 to 5000 nM

Question: With `Cn1cncc1C#Cc1c(Cl)nc(N)nc1N[C@@H]1C[C@H](CO)[C@@H](O)[C@H]1O` [Compound 30] as the compound, how does the EC90 read?
Answer: > 5000 nM

Question: For `Cc1nc(NCc2ccccn2)nc(N[C@@H]2C[C@H](CO)[C@@H](O)[C@H]2O)c1C#Cc1ccsc1` [Compound 102], which EC90 is on record?
Answer: ≤ 500 nM

Question: How did the EC90 turn out when `CNc1nc(Cl)c(C#Cc2ccc(SC)nc2C)c(N[C@@H]2C[C@H](CO)[C@@H](O)[C@H]2O)n1` [Compound 66] was run?
Answer: ≤ 500 nM

Question: `Nc1nc(Cl)c(C#Cc2ccoc2)c(N[C@@H]2C[C@H](CO)[C@@H](O)[C@H]2O)n1` [Compound 11] was tested. Which EC90 did it give?
Answer: 500 to 5000 nM

Question: With `COc1ccc(C#Cc2c(Cl)nc(NCC(F)(F)F)nc2N[C@@H]2C[C@H](CO)[C@@H](O)[C@H]2O)c(C)n1` [Compound 68] as the compound, how does the EC90 read?
Answer: ≤ 500 nM

Question: `Nc1nc(Cl)c(C#Cc2ccc(F)nc2)c(N[C@@H]2C[C@H](CO)[C@@H](O)[C@H]2O)n1` [Compound 8] was tested. Which EC90 did it give?
Answer: 500 to 5000 nM

Question: `CN(C)c1nc(Cl)c(C#Cc2cccs2)c(N[C@@H]2C[C@H](CO)[C@@H](O)[C@H]2O)n1` [Compound 48] was tested. Which EC90 did it give?
Answer: > 5000 nM

Question: For `Cc1ccc(C#Cc2c(Cl)nc(N)nc2N[C@@H]2C[C@H](CO)[C@@H](O)[C@H]2O)c(C)n1` [Compound 16], which EC90 is on record?
Answer: ≤ 500 nM

Question: For `Nc1nc(Cl)c(C#Cc2ccc(Cl)nc2)c(N[C@@H]2C[C@H](CO)[C@@H](O)[C@H]2O)n1` [Compound 9], which EC90 is on record?
Answer: > 5000 nM

Question: Which EC90 does the source give for `COCCNc1nc(C)c(C#Cc2ccc(-c3ccccn3)s2)c(N[C@@H]2C[C@H](CO)[C@@H](O)[C@H]2O)n1` [Compound 105] here?
Answer: 500 to 5000 nM
